From PMC4314399 (Cell calcium, 2014)
Where two headings read alike, the source gives them in different places.

What was measured:
Orai1 [1] = molecular target: T1, Orai1 (Homo sapiens, UniProt Q13586+Q96D31); assay: fura-2 Ca2+ add-back; type: cell-based
Orai1 [2] = molecular target: T1, Orai1; assay: fura-2 Ca2+ add-back; type: cell-based; remark: listed apart in the source

T1 sequence (Q96D31 whole entry): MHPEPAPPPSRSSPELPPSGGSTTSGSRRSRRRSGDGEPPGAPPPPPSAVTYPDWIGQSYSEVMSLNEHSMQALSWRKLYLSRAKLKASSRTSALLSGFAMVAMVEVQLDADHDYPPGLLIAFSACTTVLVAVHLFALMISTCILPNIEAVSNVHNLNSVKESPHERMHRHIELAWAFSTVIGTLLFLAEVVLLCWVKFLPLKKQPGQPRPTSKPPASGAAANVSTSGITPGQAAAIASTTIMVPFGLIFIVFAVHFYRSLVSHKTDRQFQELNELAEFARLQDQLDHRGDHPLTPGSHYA
T1 sequence (Q13586 23-685): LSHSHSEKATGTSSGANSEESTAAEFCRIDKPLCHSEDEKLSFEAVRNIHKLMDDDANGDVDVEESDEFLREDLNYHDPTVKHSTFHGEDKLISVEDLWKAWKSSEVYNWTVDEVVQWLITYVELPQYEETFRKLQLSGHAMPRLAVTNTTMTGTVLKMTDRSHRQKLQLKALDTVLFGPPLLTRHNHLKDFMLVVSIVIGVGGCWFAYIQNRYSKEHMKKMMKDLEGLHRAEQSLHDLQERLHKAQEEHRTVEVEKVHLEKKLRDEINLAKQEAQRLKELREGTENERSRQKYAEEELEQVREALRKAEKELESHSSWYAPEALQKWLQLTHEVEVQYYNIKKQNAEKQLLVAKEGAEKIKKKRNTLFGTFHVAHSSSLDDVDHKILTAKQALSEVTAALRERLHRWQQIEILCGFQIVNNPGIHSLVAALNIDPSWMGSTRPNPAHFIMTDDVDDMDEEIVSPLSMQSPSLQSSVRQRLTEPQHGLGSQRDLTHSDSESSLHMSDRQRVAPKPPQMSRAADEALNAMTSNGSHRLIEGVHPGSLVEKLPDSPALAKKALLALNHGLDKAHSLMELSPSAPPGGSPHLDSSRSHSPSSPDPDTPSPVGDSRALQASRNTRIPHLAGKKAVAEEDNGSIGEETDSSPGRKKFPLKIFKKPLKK

DPB163-AE
IC50 (Orai1 [1]): ~600 nM

DPB162-AE
IC50 (Orai1 [2]): ~200 nM
